Consider 3 compounds from US20210330594A1, “Fast-Acting Soft Gelatin Capsules Containing A Mixture Of Pain Reliever/Fever Reducer, Diuretic And Antihistamine” (PuraCap Pharmaceutical LLC, priority 2018, published 2021).

Counter-ions that a name gives are not always drawn.

The data set can be described thus: Stability determination of softgels under accelerated conditions (API assay). Type of data set: physicochemical. As to conditions: for T0 % of label: softgel of Example 1, initial (T0) API assay; for Assay % of label 40° C./75% RH 1 M / Assay % of label 40° C./75% RH 2 M / Assay % of label 40° C./75% RH 3 M: softgel, accelerated conditions 40° C./75% RH. On the procedure:
Manufactured softgels are evaluated to predict shelf life of the product. Softgel samples are kept under accelerated conditions (ACC) of 40° C./75% RH for 180 days. Samples are withdrawn and tested at predetermined periods for API assay and homogeneity. Results are compared against the label specification; if ACC-6M results (i.e., at 6 months) are within specification then a product shelf life of 2 years is predicted.

For `CC(=O)Nc1ccc(O)cc1` [Acetaminophen], the “T0 % of label” value is reported as 94.2 % of label, the “Assay % of label 40° C./75% RH 1 M” value is listed as 94.0 % of label, the “Assay % of label 40° C./75% RH 2 M” value is on record as 94.1 % of label and the “Assay % of label 40° C./75% RH 3 M” value was 92.2 % of label.
For the compound `Cn1c(=O)c2[nH]c(Br)nc2n(C)c1=O` [Pamabrom], the “T0 % of label” value is 95.5 % of label, the “Assay % of label 40° C./75% RH 1 M” value is recorded as 95.1 % of label, the “Assay % of label 40° C./75% RH 2 M” value is listed as 95.0 % of label and the “Assay % of label 40° C./75% RH 3 M” value is 93.4 % of label.
As to `COc1ccc(CN(CCN(C)C)c2ccccn2)cc1` [Pyrilamine Maleate], the “T0 % of label” value is listed as 94.3 % of label, the “Assay % of label 40° C./75% RH 1 M” value is given as 94.0 % of label, the “Assay % of label 40° C./75% RH 2 M” value was 94.2 % of label and the “Assay % of label 40° C./75% RH 3 M” value is on record as 93.9 % of label.
